Values of other authors in article PMC8583936, “Machine Learning Assisted Approach for Finding Novel High Activity Agonists of Human Ectopic Olfactory Receptors” (International Journal of Molecular Sciences, 2021).
Where a name gives a salt, the structure may show the parent alone. Read-outs that look alike come from different tables or passages of the source.

How the values were obtained:
OR1A1 = target: T1, OR1A1 (Homo sapiens, UniProt Q9P1Q5); conditions: cited from earlier work
T1 sequence (Q9P1Q5 1-309): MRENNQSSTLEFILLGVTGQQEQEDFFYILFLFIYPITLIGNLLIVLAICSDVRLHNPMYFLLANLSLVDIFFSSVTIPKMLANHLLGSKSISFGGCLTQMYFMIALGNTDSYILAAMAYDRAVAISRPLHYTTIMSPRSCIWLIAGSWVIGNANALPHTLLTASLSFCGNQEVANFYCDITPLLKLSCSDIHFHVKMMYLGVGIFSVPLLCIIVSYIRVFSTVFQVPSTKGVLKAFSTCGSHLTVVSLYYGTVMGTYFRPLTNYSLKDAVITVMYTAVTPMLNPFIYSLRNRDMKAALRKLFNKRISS

OR2W1 = target: T2, OR2W1 (Homo sapiens, UniProt Q9Y3N9); conditions: cited from earlier work
T2 sequence (Q9Y3N9 1-320): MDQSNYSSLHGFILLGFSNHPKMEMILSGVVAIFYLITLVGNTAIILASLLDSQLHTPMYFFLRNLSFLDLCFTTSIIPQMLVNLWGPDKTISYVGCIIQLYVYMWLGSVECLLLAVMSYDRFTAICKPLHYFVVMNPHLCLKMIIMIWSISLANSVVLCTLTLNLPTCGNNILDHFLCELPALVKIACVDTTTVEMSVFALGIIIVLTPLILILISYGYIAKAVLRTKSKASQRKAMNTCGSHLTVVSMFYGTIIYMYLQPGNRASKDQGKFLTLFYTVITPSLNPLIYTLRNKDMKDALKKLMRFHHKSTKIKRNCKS

[1] = Table S1, ref Supplement references [1]-[9] as printed after each odorant name
[2] = Table S2, ref Supplement references [2]-[12] as printed after each odorant name

| Compound | Class (agonist / non-agonist / conflicting info.) for OR1A1 (OR1A1; [1]) | Class (agonist / non-agonist / antagonist / conflicting info.) for OR2W1 (OR2W1; [2]) | Class (agonist / non-agonist / conflicting info.) for OR1A1 (OR1A1) | Class (agonist / non-agonist / antagonist / conflicting info.) for OR2W1 (OR2W1) |
| --- | --- | --- | --- | --- |
| CCOC(=O)C(C)C [Ethyl isobutyrate] | Non-agonist | Non-agonist |  |  |
| CC(C)C(=O)O [Isobutyric acid] | Non-agonist | Non-agonist |  |  |
| CCCC(O)CC(=O)OCC (centres unmarked) [Ethyl 3-hydroxyhexanoate] | Non-agonist | Non-agonist |  |  |
| CCCCCCOC(C)=O [Hexyl acetate] | Non-agonist | Agonist |  |  |
| COc1cc(C)ccc1O [2-methoxy-4-methylphenol] | Non-agonist | Non-agonist |  |  |
| CSSC [Dimethyl disulfide] |  |  | Conflicting info. | Non-agonist |
| CC(=O)c1cnccn1 [2-acetylpyrazine] | Non-agonist | Non-agonist |  |  |
| CCCCOC=O [Butyl formate] | Conflicting info. | Conflicting info. |  |  |
| CC1(C)CC(=O)CC(=O)C1 [Dimedone] | Non-agonist | Non-agonist |  |  |
| CCCCCC/C=C\C=O [2-nonenal, (2z)-] | Non-agonist | Non-agonist |  |  |
| O=C1CCCCCCCCCCCC(=O)OCCO1 [Ethylene brassylate] | Conflicting info. | Antagonist |  |  |
| CCCCCCCCCCCO [1-undecanol] | Non-agonist | Non-agonist |  |  |
| O=c1ccc2ccccc2o1 [Coumarin] | Non-agonist | Conflicting info. |  |  |
| CC1=CCC2CC1C2(C)C (single isomer, unassigned; (-)) [(-)-alpha-Pinene] | Non-agonist | Non-agonist |  |  |
| CSSCc1ccco1 [Methyl furfuryl disulfide] | Conflicting info. | Non-agonist |  |  |
| O=C(O)CCc1ccccc1 [3-Phenyl propionic acid] |  |  | Non-agonist | Non-agonist |
| CCCCCC(=O)CC [3-octanone] | Agonist | Agonist |  |  |
| CCC(S)C(C)=O (centres unmarked) [3-Mercapto-2-pentanone] | Non-agonist | Non-agonist |  |  |
| CCCC/C=C/C=C/C=O [E,E-2,4-nonadienal] | Non-agonist | Non-agonist |  |  |
| CC(=O)OCC=C(C)C [Prenyl acetate] | Non-agonist | Agonist |  |  |
| CC(=O)OC(C)(C)C1CC=C(C)CC1 (centres unmarked) [Terpinyl acetate] | Conflicting info. | Conflicting info. |  |  |
| CCCCCCCCCCO [1-decanol] | Agonist | Agonist |  |  |

| Compound | Class (agonist / non-agonist / conflicting info.) for OR1A1 (OR1A1; [1]) | Class (agonist / non-agonist / antagonist / conflicting info.) for OR2W1 (OR2W1; [2]) | Class (agonist / non-agonist / conflicting info.) for OR1A1 (OR1A1) | Class (agonist / non-agonist / antagonist / conflicting info.) for OR2W1 (OR2W1) |
| --- | --- | --- | --- | --- |
| Cc1cccc(C)c1O [2,6-dimethylphenol] |  |  | Non-agonist | Non-agonist |
| SCc1ccco1 [Furfurylthiol] | Non-agonist | Non-agonist |  |  |
| CCC(=O)OCCCc1ccccc1 [3-phenyl propyl propionate] |  |  | Agonist | Agonist |
| CCCCCCCCC1CCC(=O)O1 (centres unmarked) [5-Octyloxolan-2-one] | Non-agonist | Non-agonist |  |  |
| CCCCCCC1CCC(=O)O1 (centres unmarked) [5-Hexyloxolan-2-one] | Non-agonist | Non-agonist |  |  |
| CCC(=O)C1=NCCC1 [2-propionylpyrroline] | Non-agonist | Non-agonist |  |  |
| COC1=C(C)OC(C)C1=O (centres unmarked) [4-Methoxy-2,5-dimethyl-3(2H)-furanone] | Non-agonist | Non-agonist |  |  |
| C=CC(=O)CC [Ethyl vinyl ketone] | Non-agonist | Non-agonist |  |  |
| Coffee difuran | Conflicting info. | Agonist |  |  |
| O=C(O)Cc1ccccc1 [2-Phenylacetic acid] |  |  | Non-agonist | Non-agonist |
| Laevo-arabinose | Conflicting info. | Non-agonist |  |  |
| CCC1OC(C)=C(O)C1=O (centres unmarked) [Homofuraneol] | Non-agonist | Non-agonist |  |  |
| CC(=O)c1ccccc1 [Acetophenone] |  |  | Non-agonist | Agonist |
| CCCC(=O)O [Butyric acid] | Conflicting info. | Conflicting info. |  |  |
| CCC(C)C=O (centres unmarked) [2-methylbutyraldehyde] | Non-agonist | Non-agonist |  |  |
| COc1nccnc1C(C)C [2-isopropyl-3-methoxypyrazine] | Non-agonist | Non-agonist |  |  |
| CC(C)CC=O [Isovaleraldehyde] | Non-agonist | Non-agonist |  |  |
| C=C(C)[C@@H]1CC[C@@H](C)C(=O)C1 [(+)-Dihydrocarvone] | Agonist | Agonist |  |  |
| COC(=O)c1ccccc1N [Methyl anthranilate] |  |  | Non-agonist | Agonist |
| CCC(C)COC(C)=O (centres unmarked) [2-Methylbutyl acetate] | Non-agonist | Non-agonist |  |  |
| CC(=O)c1ccc(C)cc1 [4-Methyl acetophenone] | Non-agonist | Agonist |  |  |
